In publication PMC9306968, “A structural homologue of the plant receptor D14 mediates responses to strigolactones in the fungal phytopathogen Cryphonectria parasitica” (The New Phytologist, 2022):

Tests used:
CpD14 = test: intrinsic tryptophan fluorescence titration; UPLC hydrolysis assay; denaturing ESI-MS covalent adduct; assay type: binding, Cryphonectria parasitica
From the text: intrinsic tryptophan fluorescence titration; UPLC hydrolysis assay; denaturing ESI-MS covalent adduct on CpD14 | The interaction between (+)‐GR24 and CpD14 was confirmed using tryptophan intrinsic fluorescence assay

RMS3/PsD14 = molecular target: T1, RMS3/PsD14 (Lathyrus oleraceus, UniProt A0A109QYD3); test: intrinsic tryptophan fluorescence titration (also nanoDSF and UPLC hydrolysis assay); assay type: binding
T1 sequence (A0A109QYD3 1-267): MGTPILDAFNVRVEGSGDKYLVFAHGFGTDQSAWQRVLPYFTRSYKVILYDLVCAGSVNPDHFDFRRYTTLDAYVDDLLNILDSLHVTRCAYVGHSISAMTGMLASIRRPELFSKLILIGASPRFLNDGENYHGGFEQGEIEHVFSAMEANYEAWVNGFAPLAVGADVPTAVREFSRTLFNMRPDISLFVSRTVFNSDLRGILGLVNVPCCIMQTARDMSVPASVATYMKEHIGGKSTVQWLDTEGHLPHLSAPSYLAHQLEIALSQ

SMILES: CC1=C[C@H](O/C=C2/C(=O)O[C@@H]3c4ccccc4C[C@H]23)OC1=O [(+)-GR24]
- Kd (CpD14): 203 ± 41.1 µM
- Kd (RMS3/PsD14): 9.33 ± 4.27 µM
